Reference: patent publication US11617796B2, “Conjugate of minoxidil and peptide” (CAREGEN CO., LTD., priority 2016, dated 2023)
Where no end group is shown, it is not given here.

How the values were obtained:
VEGF = VEGF mRNA amount by RT-PCR in HUVECs; format: cell-based, human; conditions: 5 and 50 uM, 24 hours, compared with Minoxidil, FIGS. 4 to 6
Method: (§1) VEGF was expressed by HUVECs and TGFβ1 was expressed by hair follicle dermal papilla cells. Two cells were placed in each 6-well plate at a rate of 1×10^3 cells/well. After 24 hours of incubation in a CO2 incubator, the medium was replaced with serum-free DMEM medium. Three compounds of the present invention and Minoxidil were added to the cells at 5 uM and 50 uM concentration, respectively, and incubated for 24 hours. After incubated cells were harvested, RNA was extracted using an RNA extraction kit and RT-PCR was performed to confirm the degree of expression of VEGF and TGFβ1.

TGFβ1 = TGFβ1 mRNA amount by RT-PCR in hair follicle dermal papilla cells; format: cell-based, human; conditions: 5 and 50 uM, 24 hours, compared with Minoxidil, FIGS. 4 to 6
Method: as §1

phospho-Smad1/5/8 = test: Translocation of phospho-Smad1/5/8 to nucleus in the presence of BMP2 (Western blotting); format: cell-based; conditions: in the presence of BMP2, 5 and 50 uM, compared with Minoxidil; FIGS. 12 and 13
Method: Hair follicle dermal papilla cells were placed in each well of a 6-well plate at 1×10^3 cells/well. Incubation was performed in a CO2 incubator for 24 hours. After replacing the medium with serum-free DMEM medium, the Minoxidil, the Minoxidil-WINT, and the WINT were added respectively to the cells at a concentration of 5 uM and 50 uM, and then incubated for 24 hours. Protein was extracted using a protein extraction kit (extraction of each of the nuclear/cytoplasmic protein). Western blotting was carried out in the same manner as in Example 3-2 except that an anti-beta-catenin antibody, an anti-HDAC antibody, an anti-alpha tubulin antibody as primary antibodies were used.
The experiment was carried out in the same manner as in Example 5, except that in the presence of BMP2, the Minoxidil-Nokkin is used instead of the Minoxidil-WINT, and an anti-P-Smad1/5/8 antibody and an anti-HDAC1 antibody were used as primary antibodies.

β-catenin = test: Translocation of β-catenin to nucleus in hair follicle dermal papilla cells (Western blotting); format: cell-based; conditions: 5 and 50 uM, 24 hours, same concentration; FIG. 10
Method: Hair follicle dermal papilla cells were placed in each well of a 6-well plate at 1×10^3 cells/well. Incubation was performed in a CO2 incubator for 24 hours. […] Protein was extracted using a protein extraction kit (extraction of each of the nuclear/cytoplasmic protein). Western blotting was carried out in the same manner as in Example 3-2 except that an anti-beta-catenin antibody, an anti-HDAC antibody, an anti-alpha tubulin antibody as primary antibodies were used.

“Minoxidil-Nokkin: Minoxidil chemically conjugated to Nokkin peptide of SEQ ID NO: 1 (ELIEHGGGRPAD) (also: minoxidil conjugate, attachment site not given here)” was tested, and the “expression of VEGF (mRNA)” value (VEGF) was “significantly higher than that of Minoxidil”, the “expression of TGFβ1 (mRNA)” value (TGFβ1) was “significantly lower than that of the Minoxidil” and the “delivery of P-Smad1/5/8 into the nucleus” value (phospho-Smad1/5/8) was “reduced as compared to the treatment with the Minoxidil”.

Nc1cc(N2CCCCC2)nc(N)[n+]1[O-] [Minoxidil] was tested, and the “degree of translocation of β-catenin to the nucleus” value (β-catenin) was “significantly lower degree of translocation of β-catenin to the nucleus”.
